Test results from paper PMC10894229, “Novel antimicrobial peptides against Cutibacterium acnes designed by deep learning” (Scientific Reports, 2024).
Like-named read-outs stand apart in the source and are kept apart here. Ends that are not written are not given here.

Tests used:
[1] = system: rabbit red blood cells (rRBCs); experiment: Hemolytic activity assay; assay type: cell-based
Protocol: The hemolytic activity of peptides was assayed on rabbit red blood cells (rRBCs)[43]. Briefly, 2% rRBCs (150 μL) were incubated in the presence of various peptide concentrations (50 μL) at 37 °C for 2 h. After centrifugation, the supernatants were collected for measuring absorbance at 545 nm. PBS and 0.01% Triton X-100 were used as the negative (no hemolysis) and positive (100% hemolysis) control, respectively. Triplicate tests were performed.

[2] = system: human keratinocytes (HaCaT); experiment: HaCaT cell viability, CCK-8 assay; assay type: cell-based
Protocol: HaCaT (IM-H225) cells from Xiamen Immocell Biotechnology Co., Ltd were cultured in DMEM high glucose medium (4.5 g/L, Gibco, USA), supplemented with 10% fetal bovine serum (Gibco, USA), 100 U/mL of penicillin and 100 μg/mL of streptomycin in a 5% CO2 fully humidified environment at 37 °C.
Cell Counting Kit-8 (CCK-8; Biosharp, China) was used to assess the rate of cellular proliferation and quantify cell viability. In brief, HaCaT cells were seeded in 96-well plates with 100 μL of medium at a density of 1 × 10^4 cells per well. After incubation of cells overnight, peptides were added into the medium for another 24 h incubation. Then, 10 μL of CCK8 solution was applied to each well and incubated for 1 h at 37 °C. Finally, the absorbance values at 450 nm were determined using a microplate reader (SYNERGY-H1, BioTek, USA). Two columns of the plate were kept for negative control (medium only) and growth control (medium with HaCaT cell). All experiments were conducted in triplicate.

[3] = system: C. acnes (BNCC 336649); conditions: for Concentration with antimicrobial activity >50%: C. acnes; for Concentration with antimicrobial activity >50% / Category of in vitro test antimicrobial activity against C. acnes: supplementary Table 5; for Antimicrobial activity > 50% against C. acnes: broth microdilution, 48 h, OD 630 nm
Protocol: The strain of C. acnes (BNCC 336649) was cultured in Wilkins-Chalgren Anaerobe Broth (QingDao RiShui Bio-technologies, 11071) at 37 °C under an anaerobic atmosphere performed by a Labiophy HL-B automatic hypoxic workstation (Dalian, Liaoning Province, Labiophy HL-B), inflated with a gas mix of 15% carbon dioxide, 83% nitrogen, and 2% hydrogen.
Logarithmic phase growth bacteria were used for antimicrobial testing.
To determine the MIC values, the broth microdilution method was used. […] Briefly, peptide samples were prepared as a stock solution in water and then diluted. 180 μL of the bacterial suspension (10^7 CFU/mL) and 20 μL of the tested sample were added together into 96-Well Deep Well Plates and incubated 24 h for E. coli and S. aureus or 48 h for C. acnes and C. albicans. For each test, two columns of the plate were kept for sterility control (broth only) and growth control (broth with bacterial inoculums, no antibiotics). The optical density of cultures was measured at 630 nm by a microplate reader (SYNERGY-H1, BioTek, USA) to estimate bacterial growth. All experiments were conducted in triplicate. We used ciprofloxacin (CPFX) as the antibiotic control for antimicrobial testing.

Substance	Hemolysis Index [1]	Cytotoxic Index [2]	HaCaT cell tolerance up to [2] [µg/mL]	other results
AKRIVKLIKNFFRKL-NH2 [AMP-25]	60	20	80	
FKRLKKLFKKIWNWK [HPA3NT3, reference compound]				Hemolysis Index ([1]; ratio of EC90 (rabbit red blood cells) to MIC of C. acnes): 32; Cytotoxic Index ([2]; ratio of EC90 (HaCaT) to MIC of C. acnes): 8
GIFKKITGKLFKWIK [AMP-5]	30	10	80	
GVFDWLKKLGKKLAG [AMP-14]			80	Concentration with antimicrobial activity >50% [3]: 12.5 µg/mL; Antimicrobial activity > 50% against C. acnes ([3]; at 25 µg/mL): Inhibit (A peptide was deemed to have antimicrobial activity if C. acnes growth was inhibited by more than 50% at a given concentration); Antimicrobial activity > 50% against C. acnes ([3]; at 50 µg/mL): Inhibit (A peptide was deemed to have antimicrobial activity if C. acnes growth was inhibited by more than 50% at a given concentration); Antimicrobial activity > 50% against C. acnes ([3]; at 100 µg/mL): Inhibit (A peptide was deemed to have antimicrobial activity if C. acnes growth was inhibited by more than 50% at a given concentration); Category of in vitro test antimicrobial activity against C. acnes [3]: Strong AMP
GWAKRLATRLAKAIL-NH2 [AMP-27]	6.4	12.8	320	
HFLGVVAKLVSKLF [AMP-38]	16	10	80	
KILGKLLKWASKIW [AMP-31]	20	8		
KKIFKRIVKIIKRLL [AMP-29]	32	16		
KKLACRLWKWLAKKA [AMP-21]			80	Concentration with antimicrobial activity >50% [3]: 12.5 µg/mL; Antimicrobial activity > 50% against C. acnes ([3]; at 25 µg/mL): Inhibit (A peptide was deemed to have antimicrobial activity if C. acnes growth was inhibited by more than 50% at a given concentration); Antimicrobial activity > 50% against C. acnes ([3]; at 50 µg/mL): Inhibit (A peptide was deemed to have antimicrobial activity if C. acnes growth was inhibited by more than 50% at a given concentration); Antimicrobial activity > 50% against C. acnes ([3]; at 100 µg/mL): Inhibit (A peptide was deemed to have antimicrobial activity if C. acnes growth was inhibited by more than 50% at a given concentration); Category of in vitro test antimicrobial activity against C. acnes [3]: Strong AMP
KKWRKVLKLIKRLVG-NH2 [AMP-12]	40	16		
KRIVHRLLKKLHSLF [AMP-9]	30	20	160	
LSKWLKKLGKLLAG [AMP-33]	20	20	80	
WLSKTAKKLWNVFKS [AMP-15]				Concentration with antimicrobial activity >50% [3]: 25 µg/mL; Antimicrobial activity > 50% against C. acnes ([3]; at 25 µg/mL): Inhibit (A peptide was deemed to have antimicrobial activity if C. acnes growth was inhibited by more than 50% at a given concentration); Antimicrobial activity > 50% against C. acnes ([3]; at 50 µg/mL): Inhibit (A peptide was deemed to have antimicrobial activity if C. acnes growth was inhibited by more than 50% at a given concentration); Antimicrobial activity > 50% against C. acnes ([3]; at 100 µg/mL): Inhibit (A peptide was deemed to have antimicrobial activity if C. acnes growth was inhibited by more than 50% at a given concentration); Category of in vitro test antimicrobial activity against C. acnes [3]: Medium AMP
